Values quoted from earlier work as cited in patent US8263663B2, “Azide functionalized peptide targeting groups” (Intezyne Technologies, Inc., priority 2005, dated 2012).

Conditions: at similar concentrations (to 225 μg/mL)

In the case of `COc1cccc2c1C(=O)c1c(O)c3c(c(O)c1C2=O)C[C@@](O)(C(=O)CO)C[C@@H]3O[C@H]1C[C@H](N)[C@H](O)[C@H](C)O1` [DOX, doxorubicin], the hemolysis is given as over 10%.
